The record followed here is a melting point compilation (Tetko et al.; mined from patent text by program, amines drawn as free bases though some values may be those of a salt).

The term melting point denotes the temperature of the solid-liquid transition.

Consider `C=CC(=O)Nc1ccc2ncnc(Nc3ccc(OCc4ccccc4)cc3)c2c1`, for which the melting point lay in the range of 227 to 229 °C.
The result for `O=C(NCCc1ccccn1)c1ccc2cc(C(=O)O)[nH]c2c1` reads 198 to 199 °C; that for `O=C(NCCN1CCOCC1)N1c2ccccc2-c2noc3c2C1CCC3` (configuration not stated), 176 to 178 °C; that for `NS(=O)(=O)OCCOc1ccc(-n2cncn2)cc1`, 134 to 136 °C.
The figure for `COC(=O)c1cc(NC(C)C)c2cc(Cc3ccc(F)cc3)cnc2c1O` is 121 to 122 °C; for `CN(CCc1ccc(NC(N)=S)cc1)Cc1ccccc1` it is 119 to 122 °C; for `Nc1nc(Cl)cc(CCl)n1` it is 126 to 128 °C.
The figure for `CCOc1cc(OCCCc2cn(-c3cc(C(F)(F)F)ccn3)nc2OCC)ccc1CCC(=O)O` is 119 to 120 °C; for `O=C(Nc1nnn(C(F)F)n1)C(c1ccccc1)c1ccccc1` it is 143 to 145 °C.
`O=S(=O)(F)c1cc(S(=O)(=O)F)cc(S(=O)(=O)F)c1` registered a melting point of 166 to 168 °C.
`CCCc1nc2c(N)nc3ccc(-c4ccc(CO)cc4)cc3c2s1` came in with a melting point of 212 to 214 °C.
Consider `COCCOC/C(=C\S(=O)(=O)c1ccccc1)C(=O)OC(C)(C)C`, for which the melting point lay within 46 to 48 °C.
The figure for `Nc1nsnc1-c1c(Cl)cccc1Cl` is 95 to 97 °C; for `C=CCNc1c([N+](=O)[O-])ccc(Oc2ccc(C#N)cc2)c1Cl` it is 85 to 87 °C.
The result for `COc1ccccc1Oc1c(Cl)nc(N2CCOCC2)nc1NS(=O)(=O)c1ccc(C(C)C)cn1` reads 168 to 176 °C; that for `c1ccc(C2CN=C3Sc4ccccc4N32)cc1` (configuration not stated), 132 °C.
As for `O=C(Nc1n[nH]c(=S)s1)NC(Cc1ccccc1)C(=O)NCc1ccc2c(c1)OCO2` (configuration not stated), the melting point came to 213 °C.
With `CC(=O)c1c(-c2ccc(O)c3ccccc23)oc2ccccc12`, the melting point is 212 to 216 °C.
The result for `O=C(NCCCS(=O)c1ccncc1)c1cccs1` (configuration not stated) reads 101 to 102 °C; that for `CCOC(=O)C(C)Oc1ncn(-c2cccc(Cl)c2)n1` (configuration not stated), 70 to 72 °C.
The result for `CC1(C)CC(=O)c2c(NCc3ccco3)sc(-c3cc[nH]n3)c2C1` reads 204 to 206 °C; that for `Clc1cccc2c(CCN3CCCCC3)c(-c3ccccc3)[nH]c12`, 178 to 179 °C.
The result for `CNC(=C[N+](=O)[O-])NCCSCc1ccsn1` reads 118 to 120 °C.
`O=C(c1sc2c(ccc(=O)n2-c2ccccc2)c1Br)N1CC(OC2CCCCO2)C1` (configuration not stated) returned a melting point of 162 °C.
`CC(=O)c1ccc(CCCOc2c(C)cc(N3CN=C(C(F)(F)F)O3)cc2C)nn1` came in with a melting point of 86 to 87 °C.
The result for `COC(=O)c1ccc(Cl)c(Cn2nc(C(F)(F)F)n(C)c2=O)c1Cl` reads 109 °C; that for `NCc1nc(-c2ncn3c2[C@@H]2CCN2C(=O)c2cc(F)ccc2-3)no1`, 195 to 198 °C; that for `CN(C)S(=O)(=O)c1cccc(Cl)c1S(N)(=O)=O`, 171 to 182 °C.
`O=C(NNC(=O)c1occ(-c2ccccc2)c1-c1ccccc1)c1ccc(O)c(I)c1` had a melting point of 171 to 174 °C.
In turn, `CCOc1cc(-c2ncc3[nH]c4ccc(OCc5ccccc5)cc4c3c2COC)no1` yielded a melting point of 139 to 140 °C.
The figure for `O=C1C(=Cc2ccsc2)CCc2cc(OCCn3ccnc3)ccc21` is 61 to 62 °C.
The figure for `CCOC(=O)c1cn(OC)c2nc3cc(F)c(F)cc3cc2c1=O` is 266 to 268 °C.
The result for `CC(C)(C)OC(=O)N1CCC(C2=C(C#N)C(c3ccccc3Cl)c3c[nH]nc3N2)CC1` (configuration not stated) reads greater than 280 °C; that for `Cc1ccc(-c2nc(Cl)nc(Cl)c2-c2ccccc2)cc1`, 130 to 132 °C.
As to `O=C(O)Cc1cccc(NC(=O)NCC(=O)N2[C@@H](c3ccccc3)CC[C@H]2c2ccccc2)c1`, the melting point was 152 °C.
The figure for `O=C(O)C(OCc1ccc(-c2ccc(Cl)cc2)cc1)(C(F)(F)F)C(F)(F)F` is 90 to 92 °C; for `CCN(CC)c1ccc(N=Nc2ccc(OCCOC)c(S(=O)(=O)Cl)c2)cc1` it is 103 to 104 °C.
The result for `COc1cc2c(c(OC)c1OC)C1=C(CCC1)C(=O)CC2` reads 101 to 102 °C; that for `CCCCCCCCC(SCCCCCC)C(=O)Nc1c([N+](=O)[O-])ccc2ncccc12` (configuration not stated), 89.9 °C; that for `O=C(Cc1ccccc1)N[C@@H]1C(=O)N[C@@H]1SCC(=O)c1ccccc1`, 160 to 162 °C.
The result for `CN(C(CCn1c(=O)cc(Cl)n(C)c1=O)C(=O)NO)S(=O)(=O)c1ccc(Oc2ccccc2)cc1` (configuration not stated) reads 90 to 93 °C; that for `COc1c(Cl)ccc(-c2cc(N)c(Cl)c(C(=O)NOCc3ccc(C)cc3)n2)c1F`, 171 to 174 °C.
The compound `CC(=O)OCc1c(O)cccc1[N+](=O)[O-]` returned a melting point of 113 to 114 °C.
The result for `O=C1C=C/C(=C/c2ccc(C(F)(F)F)cc2)O1` reads 92 to 94 °C.
The figure for `CCCCCCCCCCCCCCCCCCNc1nc(NCC(O)C2CC(C)(C)NC(C)(C)C2)nc(NCC(O)C2CC(C)(C)NC(C)(C)C2)n1` (configuration not stated) is 104 to 107 °C; for `COC(=O)c1c(SC(C)C)c2cc(OC)ccc2n1C` it is 93 to 95 °C.
The result for `Cc1ccc(S(=O)(=O)OCCN2CN(C)C(=S)N(c3ccc(C)cc3C)C2)cc1` reads 82 to 85 °C; that for `CC(C)(C)OC(=O)N1CCN(C(=O)Oc2ccc(Oc3ccc(C(F)(F)F)cn3)cc2)CC1`, 165 to 166 °C.
`CC(C)(C)CNN(CC(C)(C)C)S(=O)(=O)c1nc(Cl)cs1`: the melting point came to 157 °C.
The figure for `N#Cc1c(N2CCN(C(=O)c3ccc4c(c3)OCO4)CC2)c2ccccc2n(Cc2ccc(F)cc2)c1=O` is 140 to 160 °C; for `CN1c2cc(Cl)ccc2-c2nc3ccccc3c3cccc1c23` it is 272 to 274 °C; for `Clc1ccc2c(-n3cc(Cl)cn3)ccnc2c1` it is 110 to 114 °C.
The result for `Nc1ccc(C23CC(C2)C(=O)N(C2CCCCC2)C3=O)cc1` reads 139 °C.
For the compound `C=Cc1cc(O[Si](C)(C)C(C)(C)C)cc2nc(-c3ccc(O[Si](C)(C)C(C)(C)C)c(F)c3)oc12`, the melting point fell in the range of 93 to 95 °C.
The result for `Cn1cc(-c2nc3c(N[C@H]4[C@@H](C(N)=O)[C@@H]5C=C[C@H]4C5)c(Br)cnc3[nH]2)cn1` reads 255 to 258 °C; that for `CCCCOC(=O)C(=O)c1cc(-c2ccc(S(C)(=O)=O)cc2)n(-c2ccccc2)c1C`, 100 °C.
The compound `O=C(O)CCc1cc(F)c2ncc(C(=O)NCc3ccc(Cl)cc3)c(O)c2c1` gave a melting point of 284 to 286 °C.
The result for `CCOC(=O)c1cn(CC)c2nc(Cl)c(F)cc2c1=O` reads 150 to 160 °C; that for `COC(=O)c1nn(Cc2cccc(OC)c2)c2c1CCc1cc(OCc3cncnc3)ccc1-2`, 184 °C.
The result for `COc1cc(N)c(Cl)cc1C(=O)NCC1CCN(CCCCCCC(=O)c2ccccc2)CC1` reads 128 to 130 °C; that for `C[C@H]1CCCC(C)(C)[C@@H]1[C@H](O)c1ccc2c(c1)CCN(C(N)=O)C2`, 99.1 to 101 °C.
As for `Oc1nc(-c2ccccc2)nc(-c2ccccc2)n1`, the melting point is 296 to 297 °C.
As to `Cc1cc(C2=CCN=C(CCCC(O)c3ccc(F)cc3)C2)on1` (configuration not stated), the melting point fell in the range of 116 to 119 °C.
The figure for `CCOC(=O)c1cnc2ccn(-c3ccncc3)n2c1=O` is 103 to 104 °C; for `COC(=O)c1ccc(-c2csc(N3C(=O)OCC3(C)C)n2)cc1` it is 176 to 179 °C.
The figure for `NC(=O)N1CC(Sc2ccc(Cl)cc2)C1` is 210 to 212 °C; for `O=C(CCCCl)NC1c2ccccc2CS(=O)(=O)c2ccccc21` (configuration not stated) it is 215 to 227 °C.
`Cc1n[nH]c(-c2ccc(Br)cc2)c1NC(=O)c1cccnc1` displayed a melting point of 262 to 264 °C.
The result for `O=C1COc2ccc(NC(=O)C(=O)N3CCC(Cc4ccc(F)cc4)CC3)cc2N1` reads 197 to 200 °C; that for `COC(=O)c1nn(Cc2cccc(O)c2)c2c1CCc1cc(OCc3cncnc3)ccc1-2`, 218 to 222 °C; that for `CCCCCCNCCCS(=O)(=O)O`, 144 to 147 °C.
As to `COc1cc(N2C(=O)N(C)CC2O)c(F)cc1Cl` (configuration not stated), the melting point was in the range of 138 to 140 °C.
`COc1ccc2c(c1)C(C)(C)[C@H]1CCCN(C(C)=O)[C@H]1C2` (relative stereo): the melting point lay in the range of 81 to 85 °C.
The result for `O=C(N1CC2CC(C1)c1ccccc12)C(F)(F)F` reads 67 to 68 °C; that for `COCc1nc(-c2cc(C(C)(C)C)c(O)c(C(C)(C)C)c2)cs1`, 116 to 117 °C.
Regarding `O=C1C(=O)c2ccccc2C2=C1SCC1(CCN(Cc3ccc(F)cc3F)CC1)O2`, the melting point was 104 to 107 °C.
Take `CNS(=O)(=O)Cc1ccc(Nc2nc(Nc3ccccc3)c3cc(OC)ccc3n2)cc1`: the melting point was in the range of 212 to 215 °C.
The figure for `Cn1nc(-c2cccs2)c(N)c1N` is 154 to 155 °C.
The result for `Cc1cccc(C2=CCN(CCCCCC(=O)N3Cc4ccccc4C3)CC2)c1C#N` reads 71 °C; that for `O=C(Nc1nccs1)c1cn(CC2CCCCC2)c2cc(Cl)ccc12`, 181 to 183 °C; that for `O=C1OC(c2ccccc2)(c2ccccc2)C2CN(S(=O)(=O)/C=C/c3ccc(F)cc3)CCN12` (configuration not stated), 248 to 249 °C.
For the compound `CCn1ncc2c1ncc1c(NC)nc3ncnn3c12`, the melting point was greater than 300 °C.
Compound `COC(=O)c1cc(C)cc(C#N)c1` came in with a melting point of 68 to 69 °C.
For the compound `CCOC(=O)C(C)Oc1ccc(Oc2nc3ccc(Cl)nc3s2)cc1` (configuration not stated), the melting point was 60 to 62 °C.
Consider `O=C(O)c1cc(-c2cccc(C(F)(F)F)c2)nc(C(F)(F)F)c1`, for which the melting point was 185 to 186 °C.
The result for `CN(C)CC(C)(C)Oc1ccc(Nc2cc(-c3cccc(-n4ncc5cc(C(C)(C)C)cc(F)c5c4=O)c3CO)nn(C)c2=O)nn1` reads 140 to 145 °C.
As for `CCCCCn1c(C)c(C(=O)c2ccc(Cl)c3ccccc23)c2cccc(OC)c21`, the melting point was found to be 112 °C.
